Results taken from ChEMBL document CHEMBL3259527, “Synthesis and molecular docking studies of potent α-glucosidase inhibitors based on biscoumarin skeleton” (Eur J Med Chem, 2014).
pIC50: −log10 of the molar value.

species on record: Rattus norvegicus; assay: Ratio of acarbose IC50 to compound IC50 for rat intestinal alpha-glucosidase using p-nitrophenyl-alpha-D-glucopyranoside assessed as release of p-nitrophenol after 5 mins by spectrophotometric analysis

Structure (SMILES) | Ratio IC50
O=c1oc2ccc(Cl)cc2c(O)c1C(c1cccc([N+](=O)[O-])c1)c1c(O)c2cc(Cl)ccc2oc1=O | 33
O=c1oc2ccc(Cl)cc2c(O)c1C(c1ccc(Cl)cc1Cl)c1c(O)c2cc(Cl)ccc2oc1=O | 54

target: not listed separately; assay: Inhibition of rat intestinal alpha-glucosidase using p-nitrophenyl-alpha-D-glucopyranoside assessed as release of p-nitrophenol after 5 mins by spectrophotometric analysis

Structure (SMILES) | pIC50
COc1cc(C(c2c(O)c3cc(Cl)ccc3oc2=O)c2c(O)c3cc(Cl)ccc3oc2=O)cc(OC)c1OC | 3.89
Cc1ccc2oc(=O)c(C(c3ccccc3[N+](=O)[O-])c3c(O)c4cc(C)ccc4oc3=O)c(O)c2c1 | 3.89
Cc1ccc2oc(=O)c(C(c3cccc([N+](=O)[O-])c3)c3c(O)c4cc(C)ccc4oc3=O)c(O)c2c1 | 4.17
O=c1oc2ccc(Cl)cc2c(O)c1C(c1cccc([N+](=O)[O-])c1)c1c(O)c2cc(Cl)ccc2oc1=O | 4.57
COc1ccc(C(c2c(O)c3cc(Cl)ccc3oc2=O)c2c(O)c3cc(Cl)ccc3oc2=O)cc1OC | 4.04
COc1ccc(C(c2c(O)c3cc(C)ccc3oc2=O)c2c(O)c3cc(C)ccc3oc2=O)cc1 | 3.97
CCOc1cc(C(c2c(O)c3cc(C)ccc3oc2=O)c2c(O)c3cc(C)ccc3oc2=O)ccc1O | 3.65
O=c1oc2ccc(Cl)cc2c(O)c1C(c1cccc(O)c1)c1c(O)c2cc(Cl)ccc2oc1=O | 4.08
Cc1ccc2oc(=O)c(C(c3cccc(O)c3)c3c(O)c4cc(C)ccc4oc3=O)c(O)c2c1 | 4.28
O=c1oc2ccc(Cl)cc2c(O)c1C(c1ccccc1[N+](=O)[O-])c1c(O)c2cc(Cl)ccc2oc1=O | 4.09
CCOc1cc(C(c2c(O)c3cc(Cl)ccc3oc2=O)c2c(O)c3cc(Cl)ccc3oc2=O)ccc1O | 4.24
COc1cc(C(c2c(O)c3cc(Cl)ccc3oc2=O)c2c(O)c3cc(Cl)ccc3oc2=O)ccc1O | 3.95
O=c1oc2ccc(Cl)cc2c(O)c1C(c1ccc(Cl)cc1Cl)c1c(O)c2cc(Cl)ccc2oc1=O | 4.78
Cc1ccc2oc(=O)c(C(c3ccc([N+](=O)[O-])cc3)c3c(O)c4cc(C)ccc4oc3=O)c(O)c2c1 | 4.10
C[C@H]1O[C@H](O[C@H]2[C@H](O)[C@@H](O)[C@@H](O[C@H]3[C@H](O)[C@@H](O)C(O)O[C@@H]3CO)O[C@@H]2CO)[C@H](O)[C@@H](O)[C@@H]1N[C@H]1C=C(CO)[C@@H](O)[C@H](O)[C@H]1O (stereo partly specified) [ACARBOSE] | 3.04
CSc1ccc(C(c2c(O)c3cc(C)ccc3oc2=O)c2c(O)c3cc(C)ccc3oc2=O)cc1 | 4.43
COc1ccc(C(c2c(O)c3cc(Cl)ccc3oc2=O)c2c(O)c3cc(Cl)ccc3oc2=O)cc1 | 4.12
COc1ccc(C(c2c(O)c3cc(Cl)ccc3oc2=O)c2c(O)c3cc(Cl)ccc3oc2=O)cc1O | 4.08
COc1cc(C(c2c(O)c3cc(C)ccc3oc2=O)c2c(O)c3cc(C)ccc3oc2=O)cc(OC)c1OC | 3.41
